Patent US20070004760A1, “Fungicide mixtures for the control of rice pathogens” (priority 2003, published 2007)
“And” between values parts separate entries of the source, which are not always exact repeats. Equal entries are not always repeated. Where two headings read alike, the source gives them in different places.

Columns and labels:
Pyricularia oryzae = type: in vivo; details: individual active compound, rice 'Tai-Nong 67', protective, 6 days, untreated control 60% infection
Cochliobolus miyabeanus = experiment: Activity against brown spot of rice caused by Cochliobolus miyabeanus, protective application; type: in vivo

Structure (SMILES) | Efficacy in % of the untreated control (Pyricularia oryzae; 16 ppm in the spray liquor) | Efficacy in % of the untreated control (Pyricularia oryzae; 4 ppm in the spray liquor) | Efficacy in % of the untreated control (Cochliobolus miyabeanus; in vivo) | Efficacy in % of the untreated control (Cochliobolus miyabeanus; individual active compound, 4 ppm in the spray liquor, rice 'Tai-Nong 67', protective, six days, untreated control 90% infection) | Efficacy in % of the untreated control (Cochliobolus miyabeanus; individual active compound, 16 ppm in the spray liquor, rice 'Tai-Nong 67', protective, six days, untreated control 90% infection)
C[C@H](Nc1c(-c2c(F)cc(F)cc2F)c(Cl)nc2ncnn12)C(F)(F)F [Comparison B] | 67% |  |  |  | 
CO/N=C(/C(=O)OC)c1ccccc1CO/N=C(\C)c1cccc(C(F)(F)F)c1 [II (trifloxystrobin), methyl (E)-methoxyimino-{(E)-α-[1-(α,α,α-trifluoro-m-tolyl)ethylideneaminooxy]o-tolyl}acetate] | 2% | 2% | 0% |  | 
CC1CCN(c2c(-c3c(F)cc(F)cc3F)c(Cl)nc3ncnn23)CC1 [I, 5-chloro-7-(4-methylpiperidin-1-yl)-6-(2,4,6-trifluorophenyl)-[1,2,4]triazolo[1,5-a]pyrimidine] | 67% |  |  | 33% | 33% and 56%
CC1CCN(c2c(-c3c(F)cccc3Cl)c(Cl)nc3ncnn23)CC1 [Comparison A] | 59% |  |  |  | 
